Consider 31 compounds from paper PMC11729550, “Discovery of indole analogue Tc3 as a potent pyroptosis inducer and identification of its combination strategy against hepatic carcinoma” (Theranostics, 2025).

Where two headings read alike, the source gives them in different places.

One data set relates to HepG2 cells. As to the kind of experiment: Anti-tumor activity assay (IC50 value), cells counted after three days. To be noted: for IC50: read-out: IC50 HepG2; for fold increase in cellular potency: HepG2, compared to T1.
The subject of another data set is GSDME. As to the kind of experiment: Western blot of GSDME activation. It is filed as cell-based, human. Particulars: HepG2 and SK-Hep1 cells. How it is done: The whole-cell protein was extracted by RIPA lysis buffer contained with protease and phosphatase inhibitor cocktail (MCE, HY-K0010) from cells treated by indole analogues. Proteins were separated by sodium dodecyl sulfate-polyacrylamide gel electrophoresis (SDS-PAGE) gel, and then blotted onto polyvinylidene difluoride membrane (Millipore, IPVH00010). The membranes were incubated with the primary antibodies and the following horseradish peroxidase-conjugated (HRP) secondary antibodies. Next, membranes were washed and developed by ECL regent (Millipore, WBKLS0500).
On the technique in general: In western blotting, separated proteins are transferred to a membrane and probed.

A further data set deals with PLC-PRF5 cells. As to the kind of experiment: Anti-tumor activity assay (IC50 value), cells counted after three days. The format is cell-based. Particulars: Homo sapiens, PLC-PRF-5, 72 h. The text has this:
The cells were counted with hemocytometer.

A further data set relates to HepG2 and SK-Hep1 cells. As to the kind of experiment: LDH release assay. The format is cell-based, human. To be noted: 0-4 μM, three days. How it is done: The hepatic carcinoma cells were seeded in 96-well plates and treated with indole analogues for three days. Of note, the compounds were added into DMEM medium supplemented with 1% FBS. The cellular supernatant was collected for LDH release detection by using LDH cytotoxicity assay kit (Beyotime, C0016). Statistical analysis was combined with the cell viability data tested by WST-1 cell proliferation and cytotoxicity assay kit (Beyotime, C0035).
On the technique in general: LDH in the medium is a marker of cell lysis.

The next data set relates to SK-Hep1 cells. As to the kind of experiment: Anti-tumor activity assay (IC50 value), cells counted after three days. To be noted: read-out: IC50 SK-Hep1.
The nature of data set [1]: Liver microsome metabolic stability assay. Particulars: microsomes. How it is done: The reaction media contained liver microsomes (0.5 mg/mL), 1.0 mM β-nicotinamide adenine dinucleotide phosphate (β-NADPH), 3 mM MgCl2 phosphate buffer. Microsomal suspensions were pre-incubated with Tc3 for 3 min at 37℃. The reaction was initiated with the addition of β-NADPH and samples were collected at 0, 5, 15, 30 and 60 min. The negative control was excluded of β-NADPH. Midazolam was incubated similarly as a positive control substrate. At each time point, an aliquot was mixed acetonitrile. Samples were centrifuged and then supernatant was mixed with ultrapure water for LC-MS/MS analysis.
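Throughout, for fold increase in cellular potency: HepG2 cells exposed to a drug concentration series for 3 days, then counted with a hemocytometer, inhibition relative to untreated control cell number, IC50 obtained by curve fitting.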

Method for HepG2 cells: For half maximal inhibitory concentrations (IC50) analysis, the hepatic carcinoma cells (HepG2, SK-Hep1 and PLC-PRF5) were seeded in 24-well plates respectively, then treated with drugs at concentration gradient for three days. The cells were counted with hemocytometer. […] A is the cell quantity of the control group and B is the cell quantity of the drug treated group. The cell inhibition rate was transformed using its logarithm. And the drug IC50 value were calculated by Graphpad Prsim 9 software with curve fitting of the drug concentration and log (cell inhibition rate).

The term IC50 denotes the concentration that gives 50% inhibition. For the compound `CC(C)CCC(=O)NCCCn1cc(/C=C2\SC(=O)N(Cc3ccc(F)cc3)C2=O)c2ccccc21` [Ta4], the half-inhibitory concentration (IC50) in the data set with HepG2 cells (Homo sapiens, HepG2, 72 h) is over 100 µM.

Turning to `CC(C)[C@H](N)C(=O)NCCCn1cc(/C=C2\S/C(=N\c3ccccc3)N(Cc3ccc(F)cc3)C2=O)c2ccccc21` [Tc6], in the data set on HepG2 cells (Homo sapiens, HepG2, 72 h), the IC50 is over 100 µM.

With `CC(C)C(=O)NCCCn1cc(/C=C2\SC(=O)N(Cc3ccc(F)cc3)C2=O)c2ccccc21` [Ta3], in the data set on HepG2 cells (Homo sapiens, HepG2, 72 h), the IC50 was over 50 µM.

Consider `CSCC[C@H](N)C(=O)NCCCn1cc(/C=C2\SC(=O)N(Cc3ccc(F)cc3)C2=O)c2cc(Br)ccc21` [Tb6], for which the IC50 in the data set with HepG2 cells (Homo sapiens, HepG2, 72 h) turned out to be 6.31 ± 0.35 µM.

On to `N[C@@H](Cc1ccc(O)cc1)C(=O)NCCCn1cc(/C=C2\SC(=O)N(Cc3ccc(F)cc3)C2=O)c2cc(Br)ccc21` [Tb5], for which, in the data set on HepG2 cells (Homo sapiens, HepG2, 72 h), the IC50 amounted to 11.3 µM.

Regarding `O=C(NCCCn1cc(/C=C2\SC(=O)N(Cc3ccc(F)cc3)C2=O)c2ccccc21)C1CCCC1` [Ta1], the IC50 in the data set with HepG2 cells (Homo sapiens, HepG2, 72 h) is 27.7 µM.

For the compound `O=C(NCCCn1cc(/C=C2\S/C(=N\c3ccc(N4CCOCC4)cc3)N(Cc3ccc(F)cc3)C2=O)c2ccccc21)[C@@H]1CCCN1` [Tc4], the “GSDME activation / cleavage (western blotting)” value (shortened to “GSDME activation / cleavage”) in the data set on GSDME is “did not activate GSDME”. In addition, the IC50 in the data set on PLC-PRF5 cells stood at 2920 ± 320 nM; in the data set with SK-Hep1 cells (Homo sapiens, SK-HEP1, 72 h), 2300 ± 140 nM; in the data set with HepG2 cells (Homo sapiens, HepG2, 72 h), 2.46 µM. The LDH release levels result in the data set with HepG2 and SK-Hep1 cells was “increased”. Further, the “fold increase in cellular potency” value in the data set on HepG2 cells is given as about 6.5 fold.

`COc1ccc(/N=C2\S/C(=C\c3cn(CCCNC(=O)[C@@H](N)C(C)C)c4ccccc34)C(=O)N2Cc2ccc(F)cc2)cc1` [Tc10]: the IC50 in the data set with HepG2 cells (Homo sapiens, HepG2, 72 h) was over 100 µM.

Consider `CC[C@H](C)[C@H](N)C(=O)NCCCn1cc(/C=C2\S/C(=N\c3ccc(N4CCOCC4)cc3)N(Cc3ccc(F)cc3)C2=O)c2ccccc21` [Tc5], for which the “fold increase in cellular potency” value in the data set on HepG2 cells is listed as ~ 3 fold. Also, the IC50 with HepG2 cells (Homo sapiens, HepG2, 72 h) stood at 4.9 µM.

Consider `CC[C@H](C)[C@H](N)C(=O)NCCCn1cc(/C=C2\SC(=O)N(Cc3ccc(F)cc3)C2=O)c2cc(Br)ccc21` [Tb7], for which the “GSDME activation / cleavage” value in the data set with GSDME is “did not activate GSDME”. In addition, the concentration for half-maximal inhibition (IC50) with PLC-PRF5 cells worked out at 1260 ± 310 nM; in the data set with SK-Hep1 cells (Homo sapiens, SK-HEP1, 72 h) it was 2210 ± 170 nM; in the data set with HepG2 cells (Homo sapiens, HepG2, 72 h), 1.79 µM. Besides, the LDH release levels result with HepG2 and SK-Hep1 cells is listed as “increased”. Besides, the “fold increase in cellular potency” value in the data set with HepG2 cells is recorded as about 9 fold.

In the case of `CNC(=O)c1cc(Oc2ccc(NC(=O)Nc3ccc(Cl)c(C(F)(F)F)c3)c(F)c2)ccn1` [Regorafenib, reference compound], the IC50 in the data set with SK-Hep1 cells (Homo sapiens, SK-HEP1, 72 h) was determined as 4230 ± 640 nM; in the data set with HepG2 cells (Homo sapiens, HepG2, 72 h), 4.21 ± 0.33 µM.

Turning to `COc1ccc2c(c1)c(/C=C1\SC(=O)N(Cc3ccc(F)cc3)C1=O)cn2CCCNC(=O)[C@@H](N)Cc1ccc(O)cc1` [Tb8], the half-maximal inhibitory concentration (IC50) in the data set with HepG2 cells (Homo sapiens, HepG2, 72 h) is 6.92 ± 1.21 µM.

For `CSCC[C@H](N)C(=O)NCCCn1cc(/C=C2\S/C(=N\c3ccc(N4CCOCC4)cc3)N(Cc3ccc(F)cc3)C2=O)c2ccccc21` [Tc2], the “fold increase in cellular potency” value in the data set with HepG2 cells is listed as about 2 fold. The IC50 in the data set on HepG2 cells (Homo sapiens, HepG2, 72 h) stood at 8.77 µM.

Consider `C[C@H](N)C(=O)NCCCn1cc(/C=C2\SC(=O)N(Cc3ccc(F)cc3)C2=O)c2ccccc21` [Tb1], for which the IC50 in the data set with HepG2 cells (Homo sapiens, HepG2, 72 h) is 7.97 ± 0.3 µM.

`O=C(NCCCn1cc(/C=C2\SC(=O)N(Cc3ccc(F)cc3)C2=O)c2cc(Br)ccc21)[C@@H]1CCCN1` [Tb4]: in the data set with HepG2 cells (Homo sapiens, HepG2, 72 h), the half-inhibitory concentration (IC50) is 9.23 µM.

For the compound `COc1cc2nccc(Oc3ccc(NC(=O)NC4CC4)c(Cl)c3)c2cc1C(N)=O` [Lenvatinib, reference compound], the IC50 in the data set on SK-Hep1 cells (Homo sapiens, SK-HEP1, 72 h) stood at 12400 ± 1320 nM; in the data set with HepG2 cells (Homo sapiens, HepG2, 72 h), 19.8 ± 1.43 µM.

As for `Nc1ccn([C@@H]2O[C@H](CO)[C@@H](O)C2(F)F)c(=O)n1` [Gemcitabine, reference compound], the IC50 was 40 ± 3 nM with SK-Hep1 cells (Homo sapiens, SK-HEP1, 72 h) and 0.14 ± 0.01 µM in the data set with HepG2 cells (Homo sapiens, HepG2, 72 h).

Consider `CC(C)[C@H](N)C(=O)NCCCn1cc(/C=C2\S/C(=N\c3ccc(F)cc3)N(Cc3ccc(F)cc3)C2=O)c2ccccc21` [Tc7], for which the IC50 with HepG2 cells (Homo sapiens, HepG2, 72 h) came out at 12.4 µM.

`CNC(=O)c1cc(Oc2ccc(NC(=O)Nc3ccc(Cl)c(C(F)(F)F)c3)cc2)ccn1` [Sorafenib, reference compound]: the IC50 with SK-Hep1 cells (72 h) amounted to 4400 nM; in the data set on HepG2 cells (72 h), 6.06 µM.

For `NCCCn1cc(/C=C2\S/C(=N\c3ccc(N4CCOCC4)cc3)N(Cc3ccc(F)cc3)C2=O)c2ccccc21` [Tc1], the “GSDME activation / cleavage” value in the data set with GSDME is “did not activate GSDME”. For the same compound, the IC50 with PLC-PRF5 cells was found to be 2710 ± 120 nM; in the data set with SK-Hep1 cells (Homo sapiens, SK-HEP1, 72 h), 2870 ± 610 nM; with HepG2 cells (Homo sapiens, HepG2, 72 h), 5.13 µM. In the data set on HepG2 and SK-Hep1 cells, the LDH release levels result was “increased”. Further, the “fold increase in cellular potency” value with HepG2 cells was ~ 3 fold.

On to `CCCCCCCC(=O)NCCCn1cc(/C=C2\SC(=O)N(Cc3ccc(F)cc3)C2=O)c2ccccc21` [Ta5], for which the IC50 in the data set with HepG2 cells (Homo sapiens, HepG2, 72 h) is over 100 µM.

With `COc1cc2nccc(Oc3ccc(NC(=O)C4(C(=O)Nc5ccc(F)cc5)CC4)cc3)c2cc1OC` [Cabozantinib, reference compound], the IC50 with SK-Hep1 cells (Homo sapiens, SK-HEP1, 72 h) worked out at 2260 ± 320 nM; with HepG2 cells (Homo sapiens, HepG2, 72 h), 2.64 ± 0.85 µM.

As to `CC(C)[C@H](N)C(=O)NCCCn1cc(/C=C2\S/C(=N\c3ccc(C(F)(F)F)cc3)N(Cc3ccc(F)cc3)C2=O)c2ccccc21` [Tc9], the half-maximal inhibitory concentration (IC50) in the data set with HepG2 cells (Homo sapiens, HepG2, 72 h) was found to be 10.8 µM.

For the compound `O=C(NCCCn1cc(/C=C2\SC(=O)N(Cc3ccc(F)cc3)C2=O)c2ccccc21)[C@@H]1CCCN1` [Tb3], the 50% inhibitory concentration (IC50) in the data set with HepG2 cells (Homo sapiens, HepG2, 72 h) came out at 6.2 µM.

What is called microsomal CLint is a measure of how fast metabolising enzymes remove a compound, apart from limits set by blood flow. As a reminder, the half-life is the time needed for the level to fall by half in the phase considered. The compound `Cc1ncc2n1-c1ccc(Cl)cc1C(c1ccccc1F)=NC2` [midazolam, reference compound] had a microsomal CLint at 1 μM in data set [1] (human) of 1200 µL/min/mg. In data set [1] (mouse), this compound registered a half-life at 1 μM of 2.72 min and a microsomal CLint at 1 μM of 1270 µL/min/mg.

Turning to `COc1ccc2c(c1)c(/C=C1\SC(=O)N(Cc3ccc(F)cc3)C1=O)cn2CCCNC(=O)[C@@H]1CCCN1` [Tb9], in the data set with HepG2 cells (Homo sapiens, HepG2, 72 h), the half-inhibitory concentration (IC50) amounted to 7.47 µM.

Consider `CC(C)[C@H](N)C(=O)NCCCn1cc(/C=C2\S/C(=N/C3CCCCC3)N(Cc3ccc(F)cc3)C2=O)c2ccccc21` [Tc11], for which the 50% inhibitory concentration (IC50) in the data set with HepG2 cells (Homo sapiens, HepG2, 72 h) was found to be 20.9 µM.

As to `CC(C)[C@H](N)C(=O)NCCCn1cc(/C=C2\SC(=O)N(Cc3ccc(F)cc3)C2=O)c2ccccc21` [Tb2], in the data set on HepG2 cells (Homo sapiens, HepG2, 72 h), the IC50 is 6.74 ± 0.8 µM.

In the case of `CCCC/N=C1\S/C(=C\c2cn(CCCNC(=O)[C@@H](N)C(C)C)c3ccccc23)C(=O)N1Cc1ccc(F)cc1` [Tc12], in the data set on HepG2 cells (Homo sapiens, HepG2, 72 h), the IC50 is 25 µM.

As to `NCCCn1cc(/C=C2\SC(=O)N(Cc3ccc(F)cc3)C2=O)c2ccccc21` [Compound T1], in the data set on HepG2 cells (Homo sapiens, HepG2, 72 h), the half-inhibitory concentration (IC50) was 15.9 µM.

On to `CC(C)[C@H](N)C(=O)NCCCn1cc(/C=C2\S/C(=N\c3ccc(Cl)cc3)N(Cc3ccc(F)cc3)C2=O)c2ccccc21` [Tc8], for which the IC50 in the data set with HepG2 cells (Homo sapiens, HepG2, 72 h) worked out at 15.2 µM.
